Assay results taken from US7842324B2 (Senomyx, Inc., priority 2005, dated 2010).

Tests used:
Human Panelists = assay: Line Scale sensory testing human taste test (Table C); format: in vivo; details: 5 μM compound + 6% fructose/glucose, low sodium buffer pH 7.1
Description: Purpose: To create a dose-response curve for perceived sweetness intensity of fructose-glucose concentrations. Test samples containing experimental compound are compared to this dose-response curve to determine equivalent sweetness intensity. This type of study requires a number of evaluations in order to obtain statistically significant data, so the test may be repeated with the same or additional panelists.
Overview: A group of eight or more panelists taste solutions including fructose-glucose at various concentrations, as well as the experimental compound, both with and without added fructose-glucose. Panelists rate sweetness intensity of all samples on an unstructured horizontal line scale, anchored from 0 to 10, where 0 equals no sweetness and 10 equals intense sweetness. Scores for sweetness intensity are averaged across panelists. Then using the average scores and/or equation of the line for the fructose-glucose dose-response curve, equivalent sweetness fructose-glucose concentrations are determined for the samples containing experimental compound.
Procedure: Eight or more subjects are used for the Line Scale tests. Subjects have been previously familiarized with the key attribute taste and are trained to use the 0 to 10 unstructured line scale. Subjects refrain from eating or drinking (except water) for at least 1 hour prior to the test. Subjects eat a cracker and rinse with water several times to clean the mouth.
Fructose-glucose solutions are provided at a wide range of concentrations, such as 0%, 2%, 4%, 6%, 8%, and 10% fructose-glucose, in order to create the dose-response curve. Samples containing experimental compound are prepared both alone and in a 6% fructose-glucose solution. All samples are made up in low sodium buffer pH 7.1. In order to aid dispersion, solutions can also be made up in 0.1% ethanol.
The solutions are dispensed in 20 ml volumes into 1 oz. sample cups and served to the subjects at room temperature. All samples are presented in randomized counterbalanced order to reduce response bias. Further, two sessions of testing may be used to check panel precision.
Subjects taste each sample individually and rate sweetness intensity on the line scale prior to tasting the next sample. All samples are expectorated. Subjects may retaste the samples but can only use the volume of sample given. Subjects must rinse with water between samples. Eating an unsalted cracker between sample pairs may be required depending on the samples tasted.
The scores for each sample are averaged across subjects and standard error is calculated. The dose-response curve is plotted graphically, and this may be used to ensure the panel is rating accurately; i.e. increasing the concentration of fructose-glucose should correspond to increased average scores for sweetness. A 2-way ANOVA (factors being samples and panelists) and multiple comparison tests (such as Tukey's Honestly Significant Difference test) can be used to determine differences among samples and/or panelists. A 3-way ANOVA, with sessions as the third factor, can be used to determine if there is any difference in the ratings between sessions.

tasters [1] = assay: Reduced sugar ice cream sensory evaluation; format: in vivo, human; details: for Average Sweet Intensity Score: scale 1 to 10
Procedure: A water soluble liquid sweetener concentrate composition comprising 0.1% by weight of Example 23 in USP grade propylene glycol can be prepared by mixing the amide compound and propylene glycol by stirring the composition while warming to about 50° C., then milling the resulting liquid in a Silverson mill with a square basket cage at 300-600 rpms, to further ensure homogeneity of the liquid. An alternative method actually used was that the amide compound was dissolved in ethanol (1:1000 dilution), sonicated for 20 minutes, and 19.80 grams of the diluted sweet enhancer sample was added to the vanilla flavoring (which contains 20-30% ethyl alcohol) and sonicate that sample for an additional 20 minutes.
Heavy cream and whole milk were placed into a 5000 mL stainless steel cylinder and mixed using a LIGHTNIN™ Mixer at 500 to 650 rpms using a 2.5 inch (6.35 cm) impeller with three straight blades. A vortex was created by positioning the impeller blades at a 30 to 45° angle. The sweet enhancer was added using the vanilla/ethanol mixture. Some milk/cream was added back to the weigh dish of the sweet enhancer to ensure all the amide compound was removed from the weigh dish. The sugar/stabilizer mixture was slowly added to the vortex of the mixing milk/cream solution. The resulting solution was mixed for 10 minutes until the sugar dissolved and the stabilizer rehydrated. Care was taken to ensured that no lumps or undissolved stabilizer existed in the solution. The remaining sugar was added to the vortex and mixing was continued for an additional 10 minutes. Egg yolks and vanilla flavor were next added and the mixing continued for 5 more minutes.
Ice cream samples were evaluated by tasters, using a rank rating design. Tasters used an anchored scale from 1 to 10 (1 being no sweetness, 10 being intense sweetness). Three digit coded samples were randomized and the following samples were given to tasters: full sugar version, ⅔ sugared version, ⅔ sugared+3.3 ppm or 6.6 ppm of compound 23. Tasters were instructed to hold the ice cream samples in their mouth for at least 5 seconds, expectorate the sample, and evaluate/rank the “peak” of sweetness intensity.

tasters [2] = assay: Reduced sugar dry beverage mix (strawberry beverage) sensory evaluation; format: in vivo, human; details: ⅔ sugared strawberry beverage + 1.3 ppm, scale 1 to 10
Procedure: 1000.00 g of the finished beverage was formulated. Compound 23 was diluted with maltodextrin (1:100) to form a sweetener concentrate composition prior to addition to the other dry beverage base ingredients. 50 g of the maltodextrin was placed on the bottom of a clean and dried mortar and 1.0000 g of compound 23 was added and slowly ground into the maltodextrin with the pestle. The remaining maltodextrin was added to a planetary mixer with a wire whip attachment (KITCHEN AIDE™ Mixer), and the contents of the mortar were placed into the mixer and the mixer was turned on to a slow speed (setting 3) and allowed to mix for an additional 10 minutes.
The contents of the glass container were re-mixed in the glass container before taking out aliquots of the dry diluted sweet enhancer. Using the KITCHEN AIDE™ Mixer with the wire whip attachment, the granulated ingredients of the beverage base (sugar, acid) were mixed slowly at speed 2 using the wire whip attachment for 3 minutes and 0.13 grams of the 1:100 diluted solid sweetener concentrate composition was added and mixed at speed 3 for 5 minutes. Calcium silicate was added and allowed to mix for another 5 minutes until the silicate was evenly dispersed. The dry flavor and dry color were added last and allowed to mix for another 10 minutes. A plastic spatula was used to scrape the inside of the mixing bowl to ensure complete recovery of the dry beverage base composition.
The water was placed in a stainless steel 3 L cylinder and a LIGHTNIN™ Mixer was set at 500 to 650 rpms using a 2.5 inch (6.35 cm) impeller with three straight blades. This was used to create a vortex in the water. The impeller blades were positioned at a 30 to 45° angle. The dry beverage base (53.525 grams) was slowly added to the vortex of the water and was mixed for an additional 5 minutes until all the sugar and acids had dissolved.
Samples of control sugared strawberry beverages containing sugar at the full level indicated above (50, 66.67, 80, 90, and 100% of full sugar), and the strawberry beverage comprising ⅔ sugar+1.3 ppm compound 23 were given to tasters in randomized order. Tasters used an anchored scale from 1 to 10 (1 being no sweetness, 10 being intense sweetness). Tasters were instructed to hold the beverage in their mouth for at least 5 seconds, expectorate the sample, and evaluate/rank the “peak” of sweetness intensity of their various samples. They were allowed to re-taste and re-position their samples on the physical line scale. Once satisfied with their rankings, they wrote down their code and corresponding rank score.

## CC(C)CNC(=O)C(C)(C)c1ccc(-c2cncc(C#N)c2)cc1 [Compound 23, 2-(4-(5-cyanopyridin-3-yl)phenyl)-N-isobutyl-2-methylpropanamide]
Human Panelists
  Perceived Equivalent Sweet Solution: Equal to 10% fructose/ % fructose/glucose
Tasters [1]; 3.3 ppm and 6.6 ppm in ⅔ sugared ice cream
  sweetness compared with ⅔ sugared control ice cream: scored higher in sweetness than the ⅔ sugared control sample
Tasters [1]; 6.6 ppm in ⅔ sugared ice cream
  sweetness compared with fully sugared ice cream: nearly as sweet as the fully sugared ice cream
Tasters [1]; ice cream samples containing compound 23
  Qualitative feedback of tasters: “slight lingering” and “slight delay of sweetness”
Tasters [1]; ⅔ sugared ice cream + 3.3 ppm
  Average Sweet Intensity Score: 5.143
Tasters [1]; ⅔ sugared ice cream + 6.6 ppm
  Average Sweet Intensity Score: 7.357
Tasters [2]
  Sweet Score from Individual Tastors #1: 8
  Sweet Score from Individual Tastors #2: 7
  Sweet Score from Individual Tastors #3: 7
  Sweet Score from Individual Tastors #4: 8
  Sweet Score from Individual Tastors #5: 7.5
  Sweet Score from Individual Tastors #6: 7
  Sweet Score from Individual Tastors #7: 8
  Sweet Score from Individual Tastors #8: 8
Tasters [2]; mean of eight tasters
  Average Scores: 7.56
